According to patent US6846907B1, “Osteoporosis treatment” (Hamilton Civic Hospitals Research Centre, priority 1999, dated 2005):
“Also recorded” adds a separate entry of the source. Ends that are not written are not given here.

Experiments:
[1] = biological target: Interleukin-11; experiment: cell-based or functional assay
[2] = test system: IL-11/IL-11R interaction; experiment: Inhibition of the productive interaction of IL-11 with IL-11R by IL-11 binding peptides
[3] = test system: murine calvaria cell culture; experiment: Bone nodule formation assay in the presence of exogenous IL-11 and IL-11 antagonists; format: cell-based; conditions: 20 ng/ml exogenous IL-11; for reversal of the inhibitory effect of IL-11 on bone nodule formation: 21 days, FIGS. 9, 10
Protocol: Bone nodule formation was measured using standard techniques. Briefly, calvaria cell cultures were established as follows: Calvaria cells were obtained from 2 day old fetal mouse calavariae by collagenase digestion. The cells were then cultured for 21 days in the presence of 0.5 mM ascorbic acid and 10 mM β-glycerophosphate. Where indicated in the experimental descriptions below, IL-11 and the mutant IL-11 receptor of experiment 4 were added to the culture at day 0 and every 3-4 days thereafter until the removal of the medium for analysis. Bone nodule formation was quantified by counting alizarin red stain nodules under a light microscope.
The effect of a gp130 binding region mutant soluble IL-11 receptor of type described in Experiment 4 and produced by the process of Experiment 3 on bone nodule formation in the presence of 20 ng/ml of exogenous IL-11 was assessed, and the results are depicted in FIG. 9. […] Thus, IL-11 antagonists such as mutant IL-11Rs can enhance bone nodule formation.
It was desired to determine if bone nodule formation could be modulated in a manner similar to that reported in Example 6 using an IL-11 antagonist peptide such as the one used in Example 5. To achieve this, the procedure of Example 6 was repeated, with the substitution of peptide 1 for the solubilized mutant IL-11 receptor. The results of this experiment are depicted in FIG. 10.

[4] = test system: cocultures of murine bone marrow and calvaria cells; experiment: TRAP assay: IL-11 induced osteoclast formation in cocultures of murine bone marrow and calvaria cells; format: cell-based; conditions: for IL-11 induced osteoclast formation (TRAP+ multinucleated cells): 20 ng/ml IL-11, 10, 100 or 1000 ng/ml test substance, 9 days, FIGS. 7A, 7B, 8, 12
Excerpt: Particular IL-11 antagonists useful in the treatment of IL-11 related bone density disorders may be identified using the TRAP assay and the bone nodule formation assay, discussed herein. The TRAP assay is known in the art and involves co-culturing murine calvarla (osteoblasts) and bone marrow cells in vitro and then quantifying osteoclast formation by counting the number of tartrate-resistant acid phosphatase positive (TRAP+) multinucleated cells. […] These potential IL-11 antagonists may be screened to determine if they are IL-11 antagonists by examining their activity in the TRAP assay and the bone nodule formation assay.
Post menopausal osteoporosis is characterized by a general reduction in bone mass, resulting from an imbalance between osteoblast-mediated bone formation and bone resorption by the osteoclast. While the osteoblast is responsible for the formation of new bone or osteoid, it also appears to control the activation and/or number of osteoclasts by releasing cytokines such as IL-6 or IL-11. This process can be examined using a “TRAP assay” which involves co-culturing murine calvaria (osteoblasts) and bone marrow cells in vitro and then quantifying osteoclast formation by counting the number of tartrate-resistant acid phosphatase positive (TRAP+) multinucleated cells. Ovariectomized (OVX) rats or mice provide a satisfactory animal model for postmenopausal women in studies of osteoporosis.
The effect of IL-11 on osteoclast development in cocultures of murine bone marrow and calvaria cells was examined using standard techniques. Briefly, bone marrow cultures were established by removing femurs from mice, dissecting away soft tissue, and removing the distal and proximal ends of the femur. The marrow was then flushed with 5 ml α MEM and 1.0% penicilin-streptomycin using a 25 gauge needle. The bone marrow cells were then suspended to a concentration of 5,000,000 cells per ml in α MEM containing 15% fetal calf serum (charcoal treated) to remove cells adherent to plastic. The non-adherent cells were then co cultured for an additional 9 days with murine calvaria cells prior to being fixed and stained for TRAPase activity (stains were obtained from Sigma Chemical Co., St. Louis, Mo.). TRAP+MNC's have the ability to form resorption pits in smooth cortical bone slices and are therefore considered to be of osteoclast origin.
The effect of IL-11 on osteoclast development in cocultures of murine bone marrow and calvaria cells was examined by maintaining these cultures in the presence of various specific concentrations of IL-11 for 9 days. After 9 days of culture, the cells were stained for TRAPase activity and the number of multinucleated TRAP+cells were determined. The results of this experiment are depicted in Table I. Data are expressed as mean +/−SEM. […]

[5] = test system: murine calvaria cells (primary osteoblasts); experiment: Bone nodule formation assay, effect of IL-11; format: cell-based; conditions: various concentrations of IL-11; 250 μM ascorbic acid, 10 mM β-glycerol phosphate; FIG. 5
Protocol: The effect of IL-11 on bone formation was examined using the bone nodule formation assay. Murine calvaria cells (primary osteoblasts) were cultured in the presence of 250 μM ascorbic add and 10 mM β-glycerol phosphate, and in the presence of various amounts of interleukin-11. After culturing, the culture media were plated out and the number of bone nodules per plate was counted. The results are shown on the accompanying FIG. 5, where number of bone nodules per plate is plotted as the vertical axis, with the different concentrations of interleukin on the horizontal axis, not to scale. Each bar represents the result on experiments containing a different concentration of interleukin-11, as noted on FIG. 5.

H289→Y289 mutant solubilized IL-11 receptor (from UniProt Q14626 24-370)
concentration allowing enhanced bone nodule formation in the presence of 20 ng/ml exogenous IL-11 [1]: 10 ng/mL

RRLRASW [SEQ ID NO. 5]
productive interaction of IL-11 with IL-11R [2]: capable of inhibiting the productive interaction of IL-11 and IL-11R

RRLRASWTYPASWPCQPHFL [peptide 1]
productive interaction of IL-11 with IL-11R [2]: binds IL-11 and prevents its productive interaction with IL-11R
reversal of the inhibitory effect of IL-11 on bone nodule formation [3]: able to reduce the inhibitory effects
bone nodule formation relative to control samples ([3]; 50 ng/ml peptide, FIG. 10): allowed bone nodule formation in excess of that seen in the control samples
IL-11 induced osteoclast formation (TRAP+ multinucleated cells) [4]: inhibits IL-11 induced osteoclast formation

Ser Ile Leu Arg Pro Asp Pro Pro Gin Gly Leu Arg Val Glu Ser Val Pro Gly Tyr Pro (SILRPDPPQGLRVESVPGYP; listed as Homo sapiens) [SEQ. ID. NO. 6]
productive interaction of IL-11 with IL-11R [2]: has been found to inhibit the productive interaction between IL-11 and IL-11R

Thr Tyr Pro Ala Ser Trp Pro Cys Gin Pro His Phe Leu Leu Lys Phe Arg Leu Gln Tyr (TYPASWPCQPHFLLKFRLQY; listed as Homo sapiens) [peptide 2]
reversal of the inhibitory effect of IL-11 on bone nodule formation [3]: unable to reduce the inhibition of nodule formation by IL-11
IL-11 induced osteoclast formation (TRAP+ multinucleated cells) [4]: does not

B1: IL-11: cytokine interleukin-11 (protein, UniProt P20809 22-199, looked up)
Interleukin-11: PGPPPGPPRVSPDPRAELDSTVLLTRSLLADTRQLAAQLRDKFPADGDHNLDSLPTLAMSAGALGALQLPGVLTRLRADLLSYLRHVQWLRRAGGSSLKTLEPELGTLQARLDRLLRRLQLLMSRLALPQPPPDPPAPPLAPPSSAWGGIRAAHAILGGLHLTLDWAVRGLLLLKTRL
number of bone nodules per plate [5]: number of bone nodules per plate decreased; also recorded: inhibits bone formation
osteoclast formation in vitro, effect of IL-11 ([4]; cocultures of murine calvaria and bone marrow cells): potent stimulator of osteoclast formation

B2: H289→Y289 mutant solubilized IL-11 receptor: gp130 binding region mutant (H289 to Y) recombinant soluble human IL-11 receptor of Example 3 (protein)
chain: SPCPQAWGPPGVQYGQPGRSVKLCCPGVTAGDPVSWFRDGEPKLLQGPDSGLGHELVLAQADSTDEGTYICQTLDGALGGTVTLQLGYPPARPVVSCQAADYENFSCTWSPSQISGLPTRYLTSYRKKTVLGADSQRRSPSTGPWPCPQDPLGAARCVVHGAEFWSQYRINVTEVNPLGASTRLLDVSLQSILRPDPPQGLRVESVPGYPRRLRASWTYPASWPCQPHFLLKFRLQYRPAQHPAWSTVEPAGLEEVITDAVAGLPYAVRVSARDFLDAGTWSTWSPEAWGTPSTGTIPKEIPAWGQLHTQPEVEPQVDSPAPPRPSLQPHPRLLDHRDSVEQVAVLA
modifications: left off: small tags and cut ends
bone nodule formation relative to the level in the absence of exogenous IL-11 ([3]; 10 ng/ml mutant receptor, FIG. 9): enhanced bone nodule formation
reversal of the inhibitory effect of IL-11 on bone nodule formation [3]: can reverse the effect of exogenous IL-11
IL-11 induced osteoclast formation (TRAP+ multinucleated cells) [4]: capable of inhibiting IL-11-induced osteoclast formation
